The record followed here is paper PMC6656724 (Communications Biology, 2019).

Data set [1] is described as follows: Mouse brain penetration study. The class given is in vivo, female C57BL6 mice. The following applies: for In blood / In brain: single mice, analyte inhibitor 1 (also after prodrugs) or 1h. How it is done: Inhibitor 1 (and prodrugs 1a, 1b, 1c and 1d) was dosed as a bolus solution intravenously at 1 mg free base/kg (dose volume: 5 mL/kg; dose vehicle: 5% DMSO; 95% saline (inhibitor 1) or 5% DMSO; 40% PEG400; 55% MilliQ H2O (prodrugs 1a, 1b, 1c and 1d)) to female C57BL6 mice (n = 6). At 5 min and 60 min following intravenous bolus injection of test compound, mice (n = 3/timepoint) were placed under terminal anaesthesia with isofluorane. A blood sample was taken by cardiac puncture, the […] decapitated and the brain removed. Brain weight was noted and each brain homogenised with two volumes of methanol (2 mL/g brain). Each blood sample was diluted with distilled water (1:10). Diluted blood and the brain homogenates were then stored frozen until preparation and analysis by UPLC-MS/MS. For each mouse at each timepoint for 1, the concentration in brain (ng/g) was divided by the concentration in blood (ng/mL) to give a brain:blood ratio. The mean value obtained was quoted. For prodrugs 1a to 1d, only the concentration of 1 in blood (ng/mL) and brain (ng/g) was reported.
A rapid and sensitive ultra-performance chromatography/tandem mass spectrometry (UPLC-MS/MS) method was developed and validated for the determination of inhibitor 1 and prodrug 1b (rat only). Chromatographic analysis was conducted on a Waters Acquity™ UPLC system. Chromatographic separation was performed with an Acquity™ UPLC BEH C18 column (50 × 2.1 mm, 1.7 µm, 130Å; Waters Corp.) maintained at 40 °C in a column oven. The mobile phase consisted of water with 0.01% formic acid and ACN with 0.01 % formic acid and it was delivered at a flow rate of 0.6 mL/min under gradient eluent conditions within an analysis cycle time of 3 min. The mass detection was conducted on a Waters Xevo™ TQs mass spectrometer equipped with a ScanWave™ technology. Quantitation of the analyte was performed in electrospray positive ionisation mode (ESI^+) using multiple reaction monitoring. The optimised fragmentation transition was m/z = 270.17 → 196.19 (mouse) or m/z = 270.17 → 223.76 (rat) for inhibitor 1 and m/z = 297.83 → 195.74 for prodrug 1b (rat).
Sample extraction for blood and brain homogenate was by protein precipitation (1:3 or 1:6) using ACN containing suitable internal standard. Extracts were vortexed followed by centrifugation (2800 rpm for 10 min). An aliquot of each supernatant was then diluted two-fold in distilled water ready for analysis by UPLC-MS/MS.
The weighted 1/x^2 calibration line was linear in the dynamic range of 1–5000 ng/mL for inhibitor 1 and 1–1000 ng/mL for prodrug 1b with a correlation coefficient (r^2) > 0.99 (inhibitor 1) or 0.98 (prodrug 1b). The quality control samples (QC) were prepared by using the same spiking scheme as the calibration samples and up to four different target concentration brain levels: 2 ng/mL (LQC), 40 ng/mL (MQC), 100 ng/mL (HQC) and 2000 ng/mL. Data collection, peak integration and calculations were performed using MassLynx software, version 2.1.

Data set [2] in a line: Stability in mouse hepatic microsomes. The following applies: for half-life at 1 µM: mouse, pooled liver microsomes.
Experimental: 3.6.3 Compound stability in mouse hepatic microsomes and rat hepatocytes
A microsomal stability assay was performed as described in the BioFocus Standard
Operating Procedure ADME-SOP-83, using pooled hepatic mouse
Test and control compounds (midazolam,
dextromethorphan), were prepared in DMSO and incubated at an initial concentration
in the presence of the cofactor, NADPH (1 mM). Aliquots were removed at 0, 5, 10,
20 and 40 minutes for termination of reactions and compound extraction with ACN
containing an analytical internal standard. Samples were centrifuged and the
supernatant fractions analysed for parent compound by mass spectrometry (LC-
MS/MS). The amount of compound remaining (expressed as %) was determined from
the MS response in each sample relative to that in the T = 0 samples (normalised for
internal standard). Ln plots of the % remaining were used to determine the half-life
the slope of the Ln % remaining vs time curve. The in vitro intrinsic clearance Clint
Data set [3] can be described thus: Kinetic solubility in PBS, pH 7.4 (2% DMSO). It counts as physicochemical. Conditions: for solubility at 2 h: PBS with 2% DMSO, pH 7.4, aqueous buffer, kinetic from dmso stock, PBS, pH 7.4 (2% DMSO).
The next data set in a line: in vitro. It counts as in vitro ADME, canine. Conditions: dog, MDCK. As for the experimental part: (§1) internal standard at each timepoint. […]
(§2) including an analytical internal standard.
(§3) Apparent permeability (Papp) values were determined from the relationship: […]
(§4) Where V is the volume of each Transwell compartment (apical 125 µL, basolateral 600 µL), and concentrations are the relative MS responses for compound (normalized to internal standard) in the donor chamber before incubation and acceptor chamber at the end of the incubation. Area = area of cells exposed for drug transfer (0.33 cm 2).
(§5) Efflux ratios (Papp B>A / Papp A>B) were calculated for each compound from the […]
(§6) MDR1-MDCK cell line has been engineered to overexpress the efflux transporter, MDR1 (P-glycoprotein), and a finding of good permeability B>A, but poor […]
(§7) order to confirm the involvement of MDR1 in any efflux seen, an “ef fective efflux ratio” (EER) was calculated by comparing compound efflux ratios (ER) in the two cell types, i.e. EER = ER (MDR1-MDCK)/ ER (wild-type MDCK). This ratio illustrates the effect of the over-expressed MDR1 normalised for the background movement of compound through the wild-type cells.
(§8) Lucifer Yellow (LY) was added to the apical buffer in all wells to assess viability of the cell layer. As LY cannot freely permeate lipophilic barriers, a high degree of LY […]
(§9) validity of other wells on the plate.
(§10) Compound recovery from the wells was determined from MS responses (normalized to internal standard) in donor and acceptor chambers at the end of incubation compared to response in the donor chamber pre-incubation.

The subject of a further data set is MDR1 (P-glycoprotein). Kind of data set: in vitro. It counts as in vitro ADME, canine. Conditions: dog. As for the experimental part: as §1, §2, §3, §4, §5, §6, §7, §8, §9, §10

Converted amounts (≈) assume the structure as drawn. Read-outs that look alike come from different tables or passages of the source.

Turning to `COC(=O)CN1C(=O)COc2cc(C)c(Cl)c(C)c21` [1a], the In blood entry in data set [1] (mouse, 1 mg/kg i.v., 5 min, listed as prodrug 1a, 1 mg/kg) is “≤ LLoQ”.
Consider `Cc1cc2c(c(C)c1Cl)N(Cc1nn[nH]n1)C(=O)CO2` [1h, 6-chloro-5,7-dimethyl-4-(2H-tetrazol-5-ylmethyl)-1,4-benzoxazin-3-one], for which, in data set [1] (mouse, 1 mg/kg i.v.), the “Blood levels lower than those observed for 1” value is on record as ~ 50% and the “Brain penetrance (in words)” value is recorded as “very limited brain penetrance”. Further, in data set [1] (mouse, 1 mg/kg i.v., 60 min), the In blood entry was “≤ LLoQ” and the In brain result is “≤ LLoQ”.
Consider `Cc1cc2c(c(C)c1Cl)N(CC(=O)O)C(=O)CO2` [compound 1, (6-chloro-5,7-dimethyl-3-oxo-2,3-dihydro-4H-1,4-benzoxazin-4-yl) acetic acid], for which the concentration at 5 min in data set [1] (C57BL6, mouse, whole blood, iv, female C57BL/6 mice, 1 mg/kg i.v. bolus, 5 min, read-out: Level in the blood (mean)) was 3780 ± 639 ng/mL. Also, in data set [1] (mouse, 1 mg/kg i.v.), the “Brain penetrance (in words)” value was “Minimal brain penetrance”. The In brain entry in data set [1] (mouse, 1 mg/kg i.v., 60 min) is “≤ LLoQ”. For the same compound, the Mean intrinsic clearance in data set [2] (mouse hepatic microsomes) is < 28 µL/min/mg microsome protein. Moreover, the half-life (in general, how long it takes for the measured level to halve) at 1 µM is greater than 1.67 h in data set [2] (Half-life Mean, mouse hepatic microsomes); greater than 1.67 h in data set [2] (Half-life n=1, mouse hepatic microsomes); greater than 1.67 h in data set [2] (Half-life n=2, mouse hepatic microsomes). Also, the “Kinetic solubility (in words)” value in data set [3] was “good”. Moreover, the solubility (as a rule, the concentration that dissolves in the medium under given conditions) at 2 h in data set [3] (read-out: Solubility Mean) was determined as 193 µM (≈ 52 µg/mL); in data set [3] (read-out: Solubility n=1) it was 191 µM (≈ 51.5 µg/mL); in data set [3] (read-out: Solubility n=2) it was 194 µM (≈ 52.3 µg/mL). In addition, the Papp A→B (as a rule, how fast a substance crosses the layer from the apical side) at 1 h, 10 µM in the data set “in vitro” (pH 7.4, Papp A>B n=1, wild type MDCK) worked out at 16 ×10⁻⁶ cm/s; in “in vitro” (pH 7.4, Papp A>B n=2, wild type MDCK), 11 ×10⁻⁶ cm/s; in the data set “in vitro” (pH 7.4, wild type MDCK, read-out: Papp A>B Mean), 13.5 ×10⁻⁶ cm/s; in the data set on MDR1 (P-glycoprotein) (MDCK-MDR1, pH 7.4, MDR1 MDCK, read-out: Papp A>B Mean), 16 ×10⁻⁶ cm/s; with MDR1 (P-glycoprotein) (MDCK-MDR1, pH 7.4, Papp A>B n=1, MDR1 MDCK), 18 ×10⁻⁶ cm/s; with MDR1 (P-glycoprotein) (MDCK-MDR1, pH 7.4, Papp A>B n=2, MDR1 MDCK), 14 ×10⁻⁶ cm/s. In addition, the Papp B→A – broadly, how fast a substance crosses the layer from the basolateral side – at 1 h, 10 µM was found to be 2.6 ×10⁻⁶ cm/s in “in vitro” (pH 7.4, Papp B>A n=1, wild type MDCK); 2.3 ×10⁻⁶ cm/s in “in vitro” (pH 7.4, Papp B>A n=2, wild type MDCK); 2.45 ×10⁻⁶ cm/s in “in vitro” (pH 7.4, wild type MDCK, read-out: Papp B>A Mean); 2.1 ×10⁻⁶ cm/s in the data set on MDR1 (P-glycoprotein) (MDCK-MDR1, pH 7.4, MDR1 MDCK, read-out: Papp B>A Mean); 1.8 ×10⁻⁶ cm/s with MDR1 (P-glycoprotein) (MDCK-MDR1, pH 7.4, Papp B>A n=1, MDR1 MDCK); 2.4 ×10⁻⁶ cm/s in the data set on MDR1 (P-glycoprotein) (MDCK-MDR1, pH 7.4, Papp B>A n=2, MDR1 MDCK). Further, the recovery at 1 h, 10 µM in “in vitro” (pH 7.4, wild type MDCK, read-out: Recovery A>B Mean) is 93.5%; in the data set “in vitro” (pH 7.4, wild type MDCK, read-out: Recovery A>B n=1), 100%; in “in vitro” (pH 7.4, wild type MDCK, read-out: Recovery A>B n=2) it was 87%; in the data set “in vitro” (pH 7.4, wild type MDCK, read-out: Recovery B>A Mean), 108%; in “in vitro” (pH 7.4, wild type MDCK, read-out: Recovery B>A n=1), 108%; in the data set “in vitro” (pH 7.4, wild type MDCK, read-out: Recovery B>A n=2), 109%. Besides, the recovery at 1 h, 10 µM in the data set with MDR1 (P-glycoprotein) (MDCK-MDR1, pH 7.4, MDR1 MDCK, read-out: Recovery A>B Mean) is 99%; with MDR1 (P-glycoprotein) (MDCK-MDR1, pH 7.4, MDR1 MDCK, read-out: Recovery A>B n=1) it was 107%; in the data set on MDR1 (P-glycoprotein) (MDCK-MDR1, pH 7.4, MDR1 MDCK, read-out: Recovery A>B n=2), 91%; with MDR1 (P-glycoprotein) (MDCK-MDR1, pH 7.4, MDR1 MDCK, read-out: Recovery B>A Mean), 84%; with MDR1 (P-glycoprotein) (MDCK-MDR1, pH 7.4, MDR1 MDCK, read-out: Recovery B>A n=1), 62%; with MDR1 (P-glycoprotein) (MDCK-MDR1, pH 7.4, MDR1 MDCK, read-out: Recovery B>A n=2), 106%.
On to `Cc1cc2c(c(C)c1Cl)N(CC(=O)OC(C)C)C(=O)CO2` [1c], for which the In brain entry in data set [1] (mouse, 1 mg/kg i.v., 60 min) is “≤ LLoQ”.
